The text below walks through data of paper PMC4306130 (Scientific Reports, 2015).

This assay has as its target c-Met (Homo sapiens, UniProt P08581). Kind of assay: radiometric protein kinase assay with recombinant human c-Met. It is filed as biochemical.

Sequence of c-Met (P08581 25-307): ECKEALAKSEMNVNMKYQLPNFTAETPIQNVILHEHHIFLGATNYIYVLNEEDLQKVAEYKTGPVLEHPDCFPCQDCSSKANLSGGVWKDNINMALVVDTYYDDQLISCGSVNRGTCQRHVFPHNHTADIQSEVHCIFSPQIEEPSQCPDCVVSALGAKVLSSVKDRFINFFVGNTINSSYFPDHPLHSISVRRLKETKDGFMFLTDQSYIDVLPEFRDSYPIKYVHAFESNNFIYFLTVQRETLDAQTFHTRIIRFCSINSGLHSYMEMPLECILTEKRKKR
Sequence of c-Met (P08581 308-1390): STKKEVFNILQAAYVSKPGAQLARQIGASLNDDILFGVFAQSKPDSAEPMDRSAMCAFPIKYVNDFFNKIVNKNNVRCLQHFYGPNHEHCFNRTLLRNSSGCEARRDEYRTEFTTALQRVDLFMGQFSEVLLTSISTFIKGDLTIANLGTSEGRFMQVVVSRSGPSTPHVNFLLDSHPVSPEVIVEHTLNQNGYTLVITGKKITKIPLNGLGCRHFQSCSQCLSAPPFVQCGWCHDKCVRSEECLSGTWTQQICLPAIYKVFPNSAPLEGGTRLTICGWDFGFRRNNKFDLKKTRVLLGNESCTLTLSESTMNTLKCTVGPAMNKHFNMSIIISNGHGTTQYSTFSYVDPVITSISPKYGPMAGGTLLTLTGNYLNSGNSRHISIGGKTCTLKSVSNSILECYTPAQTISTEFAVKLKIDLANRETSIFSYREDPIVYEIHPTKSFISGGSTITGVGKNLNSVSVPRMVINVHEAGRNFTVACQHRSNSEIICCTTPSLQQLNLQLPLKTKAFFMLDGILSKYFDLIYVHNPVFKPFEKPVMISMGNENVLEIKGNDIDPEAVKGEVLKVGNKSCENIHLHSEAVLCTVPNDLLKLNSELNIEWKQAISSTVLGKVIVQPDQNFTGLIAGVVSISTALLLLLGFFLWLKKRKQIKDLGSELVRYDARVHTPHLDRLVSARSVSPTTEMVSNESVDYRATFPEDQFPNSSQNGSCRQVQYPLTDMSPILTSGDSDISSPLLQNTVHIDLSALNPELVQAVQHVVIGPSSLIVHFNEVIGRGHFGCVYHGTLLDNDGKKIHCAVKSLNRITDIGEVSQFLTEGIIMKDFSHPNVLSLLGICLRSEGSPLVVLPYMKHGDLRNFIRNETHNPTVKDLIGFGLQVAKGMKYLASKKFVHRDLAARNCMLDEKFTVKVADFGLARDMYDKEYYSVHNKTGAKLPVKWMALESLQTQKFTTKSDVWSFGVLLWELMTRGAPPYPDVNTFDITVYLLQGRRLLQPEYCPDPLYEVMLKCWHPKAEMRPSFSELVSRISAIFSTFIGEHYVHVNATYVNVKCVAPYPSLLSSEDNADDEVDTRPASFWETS

By IC50 is commonly meant the concentration that inhibits the measured activity by half. On to `COc1c(C=O)c(O)cc2c1C(=O)c1ccccc1C2=O` [damnacanthal, 3-hydroxy-1-methoxy-anthraquinone-2-aldehyde], for which the IC50 was found to be 5.1 ± 0.1 µM.
